Experimental data as given in patent publication US10308595B2, “Albicidin derivatives, their use and synthesis” (priority 2013, dated 2019).

System: Escherichia coli strains expressing albicidin resistance determinants (DH5aAlbr, albD, alb14, alb19, sbmC)
Assay: Microbiological assay (Zhang et al.) for cross-resistance
Type: cell-based
Conditions: synthetic versus natural albicidin, FIG. 11
From the text: The microbiological assay described by Zhang et al., (J Appl Microbiol., 1998, 85, 1023-8) was used to study cross-resistance between synthetic albicidin (10) and the natural product albicidin purified from albicidin heterologous host developed by Vivien et al. (Antimicrob Agents Chemother., 2007, 51, 1549-52). Several Escherichia coli strains expressing a wide range of albicidin resistance determinants were used for this microbiological bioassay: strain DH5aAlbr (a spontaneous albicidin-resistant DH5a derivative; Rott et al., (J. Bacteriol., 1996, 178, 4590-4596.) and strains harboring albD (an albicidin-detoxifying gene, Zhang and Birch (Proc. Natl. Acad. Sci. USA, 1997, 94, 9984-9989.), alb14 (an albicidin efflux pump gene conferring albicidin resistance in E. coli, Bostock et al., (J. Appl. Microbiol., 2006, 101, 151-160.), alb19 (a McbG gene conferring albicidin resistance in E. coli, Hashimi et al. (Antimicrob. Agents Chemother., 2007, 51, 181-187.), or sbmC (a microcin B17 resistance gene, Baquero et al. (Mol. Microbiol., 1995, 18, 301-311.).

With COc1c(NC(=O)c2ccc(NC(=O)c3ccc(NC(=O)[C@H](CC#N)NC(=O)c4ccc(NC(=O)/C(C)=C/c5ccc(O)cc5)cc4)cc3)c(OC)c2O)ccc(C(=O)O)c1O [synthetic albicidin (10), (S,E)-4-(4-(4-(3-cyano-2-(4-(3-(4-hydroxyphenyl)-2-methylacrylamido)benzamido)propanamido)benzamido)-2-hydroxy-3-methoxybenzamido)-2-hydroxy-3-methoxybenzoic acid] the “resistance pattern (cross-resistance) in albicidin-resistant E. coli strains” value was “exactly the same”.
